# Experimental data from ChEMBL document CHEMBL1135237, “Synthesis and antibacterial activity of linezolid analogues” (2002).
# Test system: Staphylococcus epidermidis
# Assay: Compound was evaluated for minimum inhibitory concentration against Staphylococcus epidermidis 9759 strain
# Assay type: functional
row,SMILES,MIC [µg/mL]
1,CC(=O)NC[C@H]1CN(c2ccc(N3CCN(c4ccccc4)CC3)c(F)c2)C(=O)O1,1
2,CC(=O)NC[C@H]1CN(c2ccc(N3CCN(C(c4ccccc4)c4ccccc4)CC3)c(F)c2)C(=O)O1,16
3,CC(=O)NC[C@H]1CN(c2ccc(N3CCOCC3)c(F)c2)C(=O)O1 [LINEZOLID],0.5

# Continued, values first:
row,MIC [µg/mL],SMILES
1,1,COc1ccc(N2CCN(c3ccc(N4C[C@H](CNC(C)=O)OC4=O)cc3F)CC2)cc1
2,1,CC(=O)NC[C@H]1CN(c2ccc(N3CCN(c4ccc(F)cc4)CC3)c(F)c2)C(=O)O1

# Test system: Staphylococcus aureus
# Assay: Compound was evaluated for minimum inhibitory concentration against Staphylococcus aureus 9721 strain
# Assay type: functional
row,SMILES,MIC [µg/mL]
1,CC(=O)NC[C@H]1CN(c2ccc(N3CCN(c4ccccc4)CC3)c(F)c2)C(=O)O1,1
2,CC(=O)NC[C@H]1CN(c2ccc(N3CCN(C(c4ccccc4)c4ccccc4)CC3)c(F)c2)C(=O)O1,16
3,CC(=O)NC[C@H]1CN(c2ccc(N3CCOCC3)c(F)c2)C(=O)O1 [LINEZOLID],0.5

# Results, then the compound that gave them:
row,MIC [µg/mL],SMILES
1,1,COc1ccc(N2CCN(c3ccc(N4C[C@H](CNC(C)=O)OC4=O)cc3F)CC2)cc1
2,1,CC(=O)NC[C@H]1CN(c2ccc(N3CCN(c4ccc(F)cc4)CC3)c(F)c2)C(=O)O1

# Test system: Staphylococcus aureus
# Assay: Compound was evaluated for minimum inhibitory concentration against Staphylococcus aureus 9776 strain
# Assay type: functional
row,SMILES,MIC [µg/mL]
1,CC(=O)NC[C@H]1CN(c2ccc(N3CCN(c4ccccc4)CC3)c(F)c2)C(=O)O1,1
2,CC(=O)NC[C@H]1CN(c2ccc(N3CCN(C(c4ccccc4)c4ccccc4)CC3)c(F)c2)C(=O)O1,8
3,CC(=O)NC[C@H]1CN(c2ccc(N3CCOCC3)c(F)c2)C(=O)O1 [LINEZOLID],0.5

# Now from value to compound:
row,MIC [µg/mL],SMILES
1,1,COc1ccc(N2CCN(c3ccc(N4C[C@H](CNC(C)=O)OC4=O)cc3F)CC2)cc1
2,1,CC(=O)NC[C@H]1CN(c2ccc(N3CCN(c4ccc(F)cc4)CC3)c(F)c2)C(=O)O1

# Test system: Streptococcus pneumoniae
# Assay: Compound was evaluated for minimum inhibitory concentration against Streptococcus pneumoniae 9757 strain
# Assay type: functional
row,SMILES,MIC [µg/mL]
1,CC(=O)NC[C@H]1CN(c2ccc(N3CCN(c4ccccc4)CC3)c(F)c2)C(=O)O1,0.25
2,CC(=O)NC[C@H]1CN(c2ccc(N3CCN(C(c4ccccc4)c4ccccc4)CC3)c(F)c2)C(=O)O1,4

# The remaining lines, values ahead:
row,MIC [µg/mL],SMILES
1,1,COc1ccc(N2CCN(c3ccc(N4C[C@H](CNC(C)=O)OC4=O)cc3F)CC2)cc1
2,1,CC(=O)NC[C@H]1CN(c2ccc(N3CCN(c4ccc(F)cc4)CC3)c(F)c2)C(=O)O1

# Test system: Streptococcus pyogenes
# Assay: Compound was evaluated for minimum inhibitory concentration against Streptococcus pyogenes 102 strain
# Assay type: functional
row,SMILES,MIC [µg/mL]
1,CC(=O)NC[C@H]1CN(c2ccc(N3CCN(c4ccccc4)CC3)c(F)c2)C(=O)O1,1
2,CC(=O)NC[C@H]1CN(c2ccc(N3CCN(C(c4ccccc4)c4ccccc4)CC3)c(F)c2)C(=O)O1,32
3,CC(=O)NC[C@H]1CN(c2ccc(N3CCOCC3)c(F)c2)C(=O)O1 [LINEZOLID],0.5

# Second part, the compound after the results:
row,MIC [µg/mL],SMILES
1,1,COc1ccc(N2CCN(c3ccc(N4C[C@H](CNC(C)=O)OC4=O)cc3F)CC2)cc1
2,1,CC(=O)NC[C@H]1CN(c2ccc(N3CCN(c4ccc(F)cc4)CC3)c(F)c2)C(=O)O1

# Test system: Staphylococcus epidermidis
# Assay: Compound was evaluated for minimum inhibitory concentration against Staphylococcus epidermidis 9753 strain
# Assay type: functional
row,SMILES,MIC [µg/mL]
1,CC(=O)NC[C@H]1CN(c2ccc(N3CCN(c4ccccc4)CC3)c(F)c2)C(=O)O1,0.5
2,CC(=O)NC[C@H]1CN(c2ccc(N3CCN(C(c4ccccc4)c4ccccc4)CC3)c(F)c2)C(=O)O1,4
3,CC(=O)NC[C@H]1CN(c2ccc(N3CCOCC3)c(F)c2)C(=O)O1 [LINEZOLID],0.25

# Continued, values first:
row,MIC [µg/mL],SMILES
1,1,COc1ccc(N2CCN(c3ccc(N4C[C@H](CNC(C)=O)OC4=O)cc3F)CC2)cc1
2,0.5,CC(=O)NC[C@H]1CN(c2ccc(N3CCN(c4ccc(F)cc4)CC3)c(F)c2)C(=O)O1

# Test system: Streptococcus pneumoniae
# Assay: Compound was evaluated for minimum inhibitory concentration against Streptococcus pneumoniae 9798 strain
# Assay type: functional
row,SMILES,MIC [µg/mL]
1,CC(=O)NC[C@H]1CN(c2ccc(N3CCN(c4ccccc4)CC3)c(F)c2)C(=O)O1,1
2,CC(=O)NC[C@H]1CN(c2ccc(N3CCN(C(c4ccccc4)c4ccccc4)CC3)c(F)c2)C(=O)O1,8

# The next lines start with the values.
row,MIC [µg/mL],SMILES
1,1,COc1ccc(N2CCN(c3ccc(N4C[C@H](CNC(C)=O)OC4=O)cc3F)CC2)cc1
2,1,CC(=O)NC[C@H]1CN(c2ccc(N3CCN(c4ccc(F)cc4)CC3)c(F)c2)C(=O)O1

# Test system: Staphylococcus aureus
# Assay: Compound was evaluated for minimum inhibitory concentration against Staphylococcus aureus 9616 strain
# Assay type: functional
row,SMILES,MIC [µg/mL]
1,CC(=O)NC[C@H]1CN(c2ccc(N3CCN(c4ccccc4)CC3)c(F)c2)C(=O)O1,1
2,CC(=O)NC[C@H]1CN(c2ccc(N3CCN(C(c4ccccc4)c4ccccc4)CC3)c(F)c2)C(=O)O1,8
3,CC(=O)NC[C@H]1CN(c2ccc(N3CCOCC3)c(F)c2)C(=O)O1 [LINEZOLID],1

# Further lines, results first:
row,MIC [µg/mL],SMILES
1,1,COc1ccc(N2CCN(c3ccc(N4C[C@H](CNC(C)=O)OC4=O)cc3F)CC2)cc1
2,2,CC(=O)NC[C@H]1CN(c2ccc(N3CCN(c4ccc(F)cc4)CC3)c(F)c2)C(=O)O1

# Test system: Enterococcus faecalis
# Assay: Compound was evaluated for minimum inhibitory concentration against Enterococcus faecalis 50
# Assay type: functional
row,SMILES,MIC [µg/mL]
1,CC(=O)NC[C@H]1CN(c2ccc(N3CCN(c4ccccc4)CC3)c(F)c2)C(=O)O1,1
2,CC(=O)NC[C@H]1CN(c2ccc(N3CCN(C(c4ccccc4)c4ccccc4)CC3)c(F)c2)C(=O)O1,8

# Continued, values first:
row,MIC [µg/mL],SMILES
1,1,COc1ccc(N2CCN(c3ccc(N4C[C@H](CNC(C)=O)OC4=O)cc3F)CC2)cc1
2,1,CC(=O)NC[C@H]1CN(c2ccc(N3CCN(c4ccc(F)cc4)CC3)c(F)c2)C(=O)O1

# Test system: Streptococcus sp.
# Assay: Compound was evaluated for minimum inhibitory concentration against Streptococcus A 29 strain
# Assay type: functional
row,SMILES,MIC [µg/mL]
1,CC(=O)NC[C@H]1CN(c2ccc(N3CCN(c4ccccc4)CC3)c(F)c2)C(=O)O1,0.5
2,CC(=O)NC[C@H]1CN(c2ccc(N3CCN(C(c4ccccc4)c4ccccc4)CC3)c(F)c2)C(=O)O1,4
3,CC(=O)NC[C@H]1CN(c2ccc(N3CCOCC3)c(F)c2)C(=O)O1 [LINEZOLID],0.25

# Results, then the compound that gave them:
row,MIC [µg/mL],SMILES
1,1,COc1ccc(N2CCN(c3ccc(N4C[C@H](CNC(C)=O)OC4=O)cc3F)CC2)cc1
2,1,CC(=O)NC[C@H]1CN(c2ccc(N3CCN(c4ccc(F)cc4)CC3)c(F)c2)C(=O)O1

# Test system: Enterococcus faecalis
# Assay: Compound was evaluated for minimum inhibitory concentration against Enterococcus faecalis 68
# Assay type: functional
row,MIC [µg/mL],SMILES
1,2,CC(=O)NC[C@H]1CN(c2ccc(N3CCN(c4ccccc4)CC3)c(F)c2)C(=O)O1
2,32,CC(=O)NC[C@H]1CN(c2ccc(N3CCN(C(c4ccccc4)c4ccccc4)CC3)c(F)c2)C(=O)O1
3,4,CC(=O)NC[C@H]1CN(c2ccc(N3CCN(c4ccc(F)cc4)CC3)c(F)c2)C(=O)O1

# Test system: Streptococcus sp.
# Assay: Compound was evaluated for minimum inhibitory concentration against Streptococcus A 44 strain
# Assay type: functional
row,SMILES,MIC [µg/mL]
1,CC(=O)NC[C@H]1CN(c2ccc(N3CCN(c4ccccc4)CC3)c(F)c2)C(=O)O1,2
2,CC(=O)NC[C@H]1CN(c2ccc(N3CCN(C(c4ccccc4)c4ccccc4)CC3)c(F)c2)C(=O)O1,32
3,CC(=O)NC[C@H]1CN(c2ccc(N3CCOCC3)c(F)c2)C(=O)O1 [LINEZOLID],0.5

# The next lines start with the values.
row,MIC [µg/mL],SMILES
1,1,COc1ccc(N2CCN(c3ccc(N4C[C@H](CNC(C)=O)OC4=O)cc3F)CC2)cc1
2,1,CC(=O)NC[C@H]1CN(c2ccc(N3CCN(c4ccc(F)cc4)CC3)c(F)c2)C(=O)O1

# Test system: Staphylococcus epidermidis
# Assay: Compound was evaluated for minimum inhibitory concentration against Staphylococcus epidermidis 975 strain
# Assay type: functional
row,SMILES,MIC [µg/mL]
1,CC(=O)NC[C@H]1CN(c2ccc(N3CCN(c4ccccc4)CC3)c(F)c2)C(=O)O1,1
2,CC(=O)NC[C@H]1CN(c2ccc(N3CCN(C(c4ccccc4)c4ccccc4)CC3)c(F)c2)C(=O)O1,8
3,CC(=O)NC[C@H]1CN(c2ccc(N3CCOCC3)c(F)c2)C(=O)O1 [LINEZOLID],0.5

# The next lines start with the values.
row,MIC [µg/mL],SMILES
1,1,COc1ccc(N2CCN(c3ccc(N4C[C@H](CNC(C)=O)OC4=O)cc3F)CC2)cc1
2,1,CC(=O)NC[C@H]1CN(c2ccc(N3CCN(c4ccc(F)cc4)CC3)c(F)c2)C(=O)O1

# Test system: Staphylococcus aureus
# Assay: Compound was evaluated for minimum inhibitory concentration against Staphylococcus aureus 975 strain
# Assay type: functional
row,SMILES,MIC [µg/mL]
1,CC(=O)NC[C@H]1CN(c2ccc(N3CCN(c4ccccc4)CC3)c(F)c2)C(=O)O1,1
2,CC(=O)NC[C@H]1CN(c2ccc(N3CCN(C(c4ccccc4)c4ccccc4)CC3)c(F)c2)C(=O)O1,4
3,CC(=O)NC[C@H]1CN(c2ccc(N3CCOCC3)c(F)c2)C(=O)O1 [LINEZOLID],0.25

# Continued, values first:
row,MIC [µg/mL],SMILES
1,1,COc1ccc(N2CCN(c3ccc(N4C[C@H](CNC(C)=O)OC4=O)cc3F)CC2)cc1
2,0.5,CC(=O)NC[C@H]1CN(c2ccc(N3CCN(c4ccc(F)cc4)CC3)c(F)c2)C(=O)O1

# Test system: Staphylococcus aureus
# Assay: Compound was evaluated for minimum inhibitory concentration against Staphylococcus aureus 966 strain
# Assay type: functional
row,SMILES,MIC [µg/mL]
1,CC(=O)NC[C@H]1CN(c2ccc(N3CCN(c4ccccc4)CC3)c(F)c2)C(=O)O1,2
2,CC(=O)NC[C@H]1CN(c2ccc(N3CCN(C(c4ccccc4)c4ccccc4)CC3)c(F)c2)C(=O)O1,8
3,CC(=O)NC[C@H]1CN(c2ccc(N3CCOCC3)c(F)c2)C(=O)O1 [LINEZOLID],0.5

# The next lines start with the values.
row,MIC [µg/mL],SMILES
1,2,COc1ccc(N2CCN(c3ccc(N4C[C@H](CNC(C)=O)OC4=O)cc3F)CC2)cc1
2,1,CC(=O)NC[C@H]1CN(c2ccc(N3CCN(c4ccc(F)cc4)CC3)c(F)c2)C(=O)O1

# Test system: Enterococcus faecalis
# Assay: Compound was evaluated for minimum inhibitory concentration against Enterococcus faecalis 50 strain
# Assay type: functional
row,SMILES,MIC [µg/mL]
1,CC(=O)NC[C@H]1CN(c2ccc(N3CCOCC3)c(F)c2)C(=O)O1 [LINEZOLID],0.5

# Test system: Streptococcus pneumoniae
# Assay: Compound was evaluated for minimum inhibitory concentration against Streptococcus pneumoniae 9753 strain
# Assay type: functional
row,SMILES,MIC [µg/mL]
1,CC(=O)NC[C@H]1CN(c2ccc(N3CCN(c4ccccc4)CC3)c(F)c2)C(=O)O1,0.5
2,CC(=O)NC[C@H]1CN(c2ccc(N3CCN(C(c4ccccc4)c4ccccc4)CC3)c(F)c2)C(=O)O1,4

# Results, then the compound that gave them:
row,MIC [µg/mL],SMILES
1,1,COc1ccc(N2CCN(c3ccc(N4C[C@H](CNC(C)=O)OC4=O)cc3F)CC2)cc1
2,1,CC(=O)NC[C@H]1CN(c2ccc(N3CCN(c4ccc(F)cc4)CC3)c(F)c2)C(=O)O1

# Test system: Streptococcus pyogenes
# Assay: Compound was evaluated for minimum inhibitory concentration against Streptococcus pyogenes 114 strain
# Assay type: functional
row,SMILES,MIC [µg/mL]
1,CC(=O)NC[C@H]1CN(c2ccc(N3CCN(c4ccccc4)CC3)c(F)c2)C(=O)O1,1
2,CC(=O)NC[C@H]1CN(c2ccc(N3CCN(C(c4ccccc4)c4ccccc4)CC3)c(F)c2)C(=O)O1,16
3,CC(=O)NC[C@H]1CN(c2ccc(N3CCOCC3)c(F)c2)C(=O)O1 [LINEZOLID],0.5

# The remaining lines, values ahead:
row,MIC [µg/mL],SMILES
1,2,COc1ccc(N2CCN(c3ccc(N4C[C@H](CNC(C)=O)OC4=O)cc3F)CC2)cc1
2,2,CC(=O)NC[C@H]1CN(c2ccc(N3CCN(c4ccc(F)cc4)CC3)c(F)c2)C(=O)O1
